Results on 26 molecules are retold here after patent US12492181B2, “Gem-disubstituted piperidine melanocortin subtype-2 receptor (MC2R) antagonists and uses thereof” (Crinetics Pharmaceuticals, Inc., priority 2019, dated 2025).

T1 sequence (Q01718 whole entry): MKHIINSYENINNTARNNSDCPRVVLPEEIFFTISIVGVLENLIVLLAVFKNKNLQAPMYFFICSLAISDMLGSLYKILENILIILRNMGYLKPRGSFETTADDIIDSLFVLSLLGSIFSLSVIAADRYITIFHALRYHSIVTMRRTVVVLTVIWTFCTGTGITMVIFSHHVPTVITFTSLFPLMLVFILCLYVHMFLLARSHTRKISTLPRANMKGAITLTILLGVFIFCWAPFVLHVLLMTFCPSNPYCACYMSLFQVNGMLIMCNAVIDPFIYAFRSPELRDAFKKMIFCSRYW
T1 sequence (Q8TCY5 whole entry partner): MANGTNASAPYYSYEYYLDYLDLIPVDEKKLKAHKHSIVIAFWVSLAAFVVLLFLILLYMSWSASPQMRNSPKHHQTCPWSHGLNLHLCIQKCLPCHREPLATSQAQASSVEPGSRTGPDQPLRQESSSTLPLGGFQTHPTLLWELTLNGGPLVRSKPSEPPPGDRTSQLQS

This assay addresses T1, hMC2 receptor (crude hMC2R membranes from CRE-bla-CHO-K1 cells stably expressing hMC2 receptor and hMRAP accessory protein) (Homo sapiens, UniProt Q01718).
T1 construct: crude membrane fractions
The experiment in a line: hMC2 membrane binding assay ([125I]ACTH (1-39) Tyr23, SPA). The following applies: displacement of 0.2 nM [125I]ACTH (1-39) Tyr23 from hMC2R membranes, 1.5 hours at room temperature; read-out: MC2R binding potency. Summed up: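 Crude membranes from CRE-bla-CHO-K1 cells stably co-expressing hMC2R and hMRAP, premixed with WGA PVT SPA beads in pH 7.4 HEPES buffer (5 mM MgCl2, 1 mM CaCl2, 0.20% BSA, protease inhibitors). Compounds compete with [125I]ACTH(1-39) Tyr23, read by scintillation. Ki from non-linear regression.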
For `CCOc1ccccc1-c1ccc(C2(C(=O)N[C@H]3CCN(C)C3)CCN(c3ccc(C(F)(F)F)cc3F)CC2)cn1` [Compound 1-145, 4-[6-(2-ethoxyphenyl)pyridin-3-yl]-1-[2-fluoro-4-(trifluoromethyl)phenyl]-N-[(3S)-1-methylpyrrolidin-3-yl]piperidine-4-carboxamide], the Ki is < 10 nM.

Turning to `CN1CC[C@@H](NC(=O)C2(c3ccc(-c4cccn4C)nc3)CCN(c3ccc(C(F)(F)F)cc3C#N)CC2)C1` [Compound 1-88, 1-[2-cyano-4-(trifluoromethyl)phenyl]-4-[6-(1-methyl-1H-pyrrol-2-yl)pyridin-3-yl]-N-[(3R)-1-methylpyrrolidin-3-yl]piperidine-4-carboxamide], the Ki was < 10 nM.

As for `CN1CC[C@@H](NC(=O)C2(c3ccc(-c4ccccc4OC(F)(F)F)nc3)CCN(c3ccc(C(F)(F)F)cc3C#N)CC2)C1` [Compound 1-71, 1-[2-cyano-4-(trifluoromethyl)phenyl]-N-[(3R)-1-methylpyrrolidin-3-yl]-4-{6-[2-(trifluoromethoxy)phenyl]pyridin-3-yl}piperidine-4-carboxamide], the Ki is < 10 nM.

For `CN1CC[C@H](NC(=O)C2(c3ccc(-c4ncoc4C4CC4)nc3)CCN(c3ccc(C(F)(F)F)cc3C#N)CC2)C1` [Compound 1-182, 1-[2-cyano-4-(trifluoromethyl)phenyl]-4-[6-(5-cyclopropyl-1,3-oxazol-4-yl)pyridin-3-yl]-N-[(3S)-1-methylpyrrolidin-3-yl]piperidine-4-carboxamide], the Ki fell in the range of 10 to 100 nM.

As for `CCOc1ncccc1-c1ccc(C2(C(=O)NC3CN(C)C3)CCN(c3ccc(C(F)(F)F)cc3C#N)CC2)cn1` [Compound 1-19, 1-[2-cyano-4-(trifluoromethyl)phenyl]-4-{2′-ethoxy-[2,3′-bipyridin]-5-yl}-N-(1-methylazetidin-3-yl)piperidine-4-carboxamide], the Ki was < 10 nM.

For the molecule `CN1CC[C@H](C(=O)NC2(c3ccc(-c4cccn4C)nc3)CCN(c3ccc(C(F)(F)F)cc3C#N)CC2)C1` [Compound 2-46, (3S)—N-{1-[2-cyano-4-(trifluoromethyl)phenyl]-4-[6-(1-methyl-1H-pyrrol-2-yl)pyridin-3-yl]piperidin-4-yl}-1-methylpyrrolidine-3-carboxamide], the Ki is < 10 nM.

Consider `COc1ccccc1-c1ccc(C2(C(=O)N[C@H]3CCN(C)C3)CCN(c3ccc(C(F)(F)F)cc3C#N)CC2)cn1` [Compound 1-166, 1-[2-cyano-4-(trifluoromethyl)phenyl]-4-[6-(2-methoxyphenyl)pyridin-3-yl]-N-[(3S)-1-methylpyrrolidin-3-yl]piperidine-4-carboxamide], for which the Ki is < 10 nM.

Turning to `COc1ccccc1-c1ccc(C2(NC(=O)[C@@H]3CCN(C)C3)CCN(c3ccc(C(F)(F)F)cc3C#N)CC2)cn1` [Compound 2-60, (3R)—N-{1-[2-cyano-4-(trifluoromethyl)phenyl]-4-[6-(2-methoxyphenyl)pyridin-3-yl]piperidin-4-yl}-1-methylpyrrolidine-3-carboxamide], the Ki is < 10 nM.

On to `COc1ccccc1-c1ccc(C2(C(=O)NCCN(C)C)CCN(c3ccc(C(F)(F)F)cc3C#N)CC2)cn1` [Compound 1-212, 1-[2-cyano-4-(trifluoromethyl)phenyl]-N-[2-(dimethylamino)ethyl]-4-[6-(2-methoxyphenyl)pyridin-3-yl]piperidine-4-carboxamide], for which the Ki is < 10 nM.

Consider `CCOc1ncccc1-c1ccc(C2(C(=O)N[C@@H]3CCN(C)C3)CCN(c3ccc(C(F)(F)F)nc3C#N)CC2)cc1` [Compound 1-23, 1-[2-cyano-6-(trifluoromethyl)pyridin-3-yl]-4-[4-(2-ethoxypyridin-3-yl)phenyl]-N-[(3R)-1-methylpyrrolidin-3-yl]piperidine-4-carboxamide], for which the Ki was < 10 nM.

For `CCOc1ccccc1-c1ccc(C2(C(=O)N[C@H]3CCN(C)C3)CCN(c3c(F)cc(Cl)cc3C#N)CC2)cn1` [Compound 1-111, 1-(4-chloro-2-cyano-6-fluorophenyl)-4-[6-(2-ethoxyphenyl)pyridin-3-yl]-N-[(3S)-1-methylpyrrolidin-3-yl]piperidine-4-carboxamide], the Ki was < 10 nM.

For the molecule `COc1ncccc1-c1ccc(C2(C(=O)N[C@@H](C)CN(C)C)CCN(c3ccc(C(F)(F)F)cc3Cl)CC2)cn1` [Compound 1-296, 1-[2-chloro-4-(trifluoromethyl)phenyl]-N-[(2S)-1-(dimethylamino)propan-2-yl]-4-{2′-methoxy-[2,3′-bipyridin]-5-yl}piperidine-4-carboxamide], the Ki was < 10 nM.

Regarding `CCOc1ncccc1-c1cnc(C2(C(=O)N[C@@H]3CCN(C)C3)CCN(c3ccc(C(F)(F)F)cc3C#N)CC2)cn1` [Compound 1-51, 1-[2-cyano-4-(trifluoromethyl)phenyl]-4-[5-(2-ethoxypyridin-3-yl)pyrazin-2-yl]-N-[(3R)-1-methylpyrrolidin-3-yl]piperidine-4-carboxamide], the Ki is < 10 nM.

As for `CCOc1ncccc1-c1ccc(C2(NC(=O)CCN)CCN(c3ccc(C(F)(F)F)cc3C#N)CC2)cn1` [Compound 2-4, 3-amino-N-{1-[2-cyano-4-(trifluoromethyl)phenyl]-4-{2′-ethoxy-[2,3′-bipyridin]-5-yl}piperidin-4-yl}propanamide], the Ki was < 10 nM.

On to `CCOc1ncccc1-c1ccc(C2(C(=O)NCCCN)CCN(c3ccc(C(F)(F)F)cc3C#N)CC2)cc1` [Compound 1-5, N-(3-aminopropyl)-1-[2-cyano-4-(trifluoromethyl)phenyl]-4-[4-(2-ethoxypyridin-3-yl)phenyl]piperidine-4-carboxamide], for which the Ki lay in the range of 10 to 100 nM.

As to `CNCCNC(=O)C1(c2ccc(-c3cccnc3OC)nc2)CCN(c2ccc(C(F)(F)F)cc2Cl)CC1` [Compound 1-274, 1-[2-chloro-4-(trifluoromethyl)phenyl]-4-{2′-methoxy-[2,3′-bipyridin]-5-yl}-N-[2-(methylamino)ethyl]piperidine-4-carboxamide], the Ki was < 10 nM.

In the case of `CN1CC[C@H](NC(=O)C2(c3ccc(-c4cccc(F)c4C#N)nc3)CCN(c3ccc(C(F)(F)F)cc3C#N)CC2)C1` [Compound 1-148, 4-[6-(2-cyano-3-fluorophenyl)pyridin-3-yl]-1-[2-cyano-4-(trifluoromethyl)phenyl]-N-[(3S)-1-methylpyrrolidin-3-yl]piperidine-4-carboxamide], the Ki was in the range of 10 to 100 nM.

With `CCOc1ccccc1-c1ccc(C2(NC(=O)C3CN(C)C3)CCN(c3ccc(C(F)(F)F)cc3C#N)CC2)cn1` [Compound 2-35, N-{1-[2-cyano-4-(trifluoromethyl)phenyl]-4-[6-(2-ethoxyphenyl)pyridin-3-yl]piperidin-4-yl}-1-methylazetidine-3-carboxamide], the Ki is < 10 nM.

Turning to `CCOc1ncccc1-c1ccc(C2(C(=O)NCCNC)CCN(c3ccc(C(F)(F)F)cc3C#N)CC2)cc1` [Compound 1-7, 1-[2-cyano-4-(trifluoromethyl)phenyl]-4-[4-(2-ethoxypyridin-3-yl)phenyl]-N-[2-(methylamino)ethyl]piperidine-4-carboxamide], the Ki is < 10 nM.

For the molecule `CCOc1ccccc1-c1ccc(C2(C(=O)N[C@H]3CCN(C)C3)CCN(c3ccc(C(F)(F)F)cc3Cl)CC2)nn1` [Compound 1-175, 1-[2-chloro-4-(trifluoromethyl)phenyl]-4-[6-(2-ethoxyphenyl)pyridazin-3-yl]-N-[(3S)-1-methylpyrrolidin-3-yl]piperidine-4-carboxamide], the Ki was < 10 nM.

As to `CN1CC[C@H](NC(=O)C2(c3cnc(-c4cccn4C)c(F)c3)CCN(c3ccc(Cl)cc3C#N)CC2)C1` [Compound 1-163, 1-(4-chloro-2-cyanophenyl)-4-[5-fluoro-6-(1-methyl-1H-pyrrol-2-yl)pyridin-3-yl]-N-[(3S)-1-methylpyrrolidin-3-yl]piperidine-4-carboxamide], the Ki is < 10 nM.

Consider `Cc1oncc1-c1ccc(C2(C(=O)N[C@@H]3CCN(C)C3)CCN(c3ccc(C(F)(F)F)cc3C#N)CC2)cn1` [Compound 1-157, 1-[2-cyano-4-(trifluoromethyl)phenyl]-4-[6-(5-methyl-1,2-oxazol-4-yl)pyridin-3-yl]-N-[(3R)-1-methylpyrrolidin-3-yl]piperidine-4-carboxamide], for which the Ki was 10 to 100 nM.

In the case of `Cc1ccc(F)cc1-c1ccc(C2(C(=O)N[C@@H]3CCN(C)C3)CCN(c3ccc(C(F)(F)F)cc3C#N)CC2)cn1` [Compound 1-99, 1-[2-cyano-4-(trifluoromethyl)phenyl]-4-[6-(5-fluoro-2-methylphenyl)pyridin-3-yl]-N-[(3R)-1-methylpyrrolidin-3-yl]piperidine-4-carboxamide], the Ki is < 10 nM.

For `COc1ccccc1-c1ncc(C2(NC(=O)O[C@@H]3CCN(C)C3)CCN(c3ccc(C(F)(F)F)cc3C#N)CC2)cc1F` [Compound 2-50, (3R)-1-methylpyrrolidin-3-yl N-{1-[2-cyano-4-(trifluoromethyl)phenyl]-4-[5-fluoro-6-(2-methoxyphenyl)pyridin-3-yl]piperidin-4-yl}carbamate], the Ki was < 10 nM.

As for `CCOc1ncccc1-c1ccc(C2(C(=O)N[C@@H]3CCN(C)C3)CCN(c3ccc(C(F)(F)F)nc3C#N)CC2)cn1` [Compound 1-24, 1-[2-cyano-6-(trifluoromethyl)pyridin-3-yl]-4-{2′-ethoxy-[2,3′-bipyridin]-5-yl}-N-[(3R)-1-methylpyrrolidin-3-yl]piperidine-4-carboxamide], the Ki is < 10 nM.

Regarding `CN1CC[C@H](NC(=O)C2(c3ccc(-c4ccc[nH]4)nc3)CCN(c3ccc(C(F)(F)F)cc3C#N)CC2)C1` [Compound 1-143, 1-[2-cyano-4-(trifluoromethyl)phenyl]-N-[(3S)-1-methylpyrrolidin-3-yl]-4-[6-(1H-pyrrol-2-yl)pyridin-3-yl]piperidine-4-carboxamide], the Ki was < 10 nM.
